Experimental data as given in article PMC12680861, “Comparative analysis of LJ-4378 and tirzepatide in mouse models of obesity and weight regain” (Archives of Pharmacal Research, 2025).

Legend:
WR mice = assay: WR model: glucose metabolism, gWAT inflammation, hepatic steatosis at 4 weeks post-treatment; type: in vivo, C57BL/6 J male mice; conditions: for macrophage marker F4/80 and CLS formation in gWAT: 4 weeks of the weight regaining phase
Source text: To assess post-treatment weight rebound (WR), the mice previously treated with vehicle, LJ-4378, or TZP were maintained on HFD for an additional 4 weeks following treatment cessation. Treatment protocols for the WR groups were identical to those of the HFD groups. In total, nine experimental groups were established: NCD + CTL, NCD + LJ, NCD + TZP; HFD + CTL, HFD + LJ, HFD + TZP; and WR + CTL, WR + LJ, WR + TZP. The volume of oxygen consumed (VO2), carbon dioxide produced (VCO2), respiratory exchange ratio (RER), energy expenditure, activity, and food intake were measured with PhenoMaster (TSE Systems, Bad Homburg, Germany). Indirect calorimetry was performed under controlled conditions, with a stable ambient temperature of 24 °C and a 12 h light/12-h dark cycle. Mice fed HFD were administered vehicle, LJ-4378, or TZP for 14 days, and the last 2 days of treatment were conducted during indirect calorimetry analysis. The WR model was examined by indirect calorimetry after 2 and 4 weeks of the weight regaining phase.
For protein extraction, we utilized PRO-RERP Protein Extraction Solution (17081, iNtRON Biotechnology, Gyeonggi-do, Korea), supplemented with […] Protease Inhibitor (S8820, Sigma, St. Louis, MO, USA) and PhosSTOP phosphatase inhibitor (#4906837001, Roche, Basel, Switzerland). Protein concentrations were determined using the Pierce BCA protein assay Kit (#23227, Thermo Fisher, Waltham, Massachusetts, USA) by measuring absorbance at 562 nm with a MultiSkan GO spectrophotometer (Thermo Fisher). The quantified proteins were loaded and separated in 12% SDS-PAGE gels and transferred to polyvinylidene difluoride (PVDF) membranes (Bio-Rad, Hercules, CA, USA). Membranes were blocked in 5% bovine serum albumin or skim milk in Tris-buffered saline with 0.1% Tween 20 (TBST) for 1 h, followed by overnight incubation with primary antibodies. The next day, membranes were washed 3 times with TBST and incubated for 1 h with horseradish peroxidase (HRP)-conjugated secondary antibody: Goat anti-rabbit (1:3000, #31460, Thermo Fisher) and Goat anti-Mouse IgG (1:3000, 115–035-174, Jackson ImmunoResearch). After secondary antibody incubation, membranes were washed 3 times with TBST and detected with the Fusion Solo chemiluminescence imaging system (Vilber Lourmat, France). EvolutionCapt (version 17.03) software and the ImageJ (National Institutes of Health, Bethesda, MD, USA) program were used for analysis and to quantify the protein level.
RT-qPCR was conducted according to the method (Cho et al. [2022]). The tissue samples were lysed in TRIzol (#15596018, Thermo Fisher), and the total RNA was extracted. The extracted RNA was synthesized into cDNA using the cDNA Reverse Transcription Kit (Applied Biosystems, Waltham, MA, USA). mRNA levels were quantified using iQ SYBR Green Supermix on the CFX Connect Real-time system (Bio-rad). Relative expression levels of each gene were calculated using the […] method, with the reference housekeeping gene as follows: Peptidylprolyl isomerase A (Ppia) for adipose tissue and glyceraldehyde-3-phosphate dehydrogenase (Gapdh) for hypothalamus.
The glucose tolerance test was conducted on mice fasted for 12 h with ad libitum access to water. Mice were intraperitoneally injected with 20% D-( +)-glucose (2 g/kg body weight, #49139, Sigma), and blood glucose levels were measured at each time point using a Gluco Doctor Top meter and strip (Allmedicus, South Korea).
Adipose tissues were fixed in 10% formalin (HT50128, Sigma) for 2 days and made into paraffin slides. The deparaffinized sections were stained with ClearView Staining Hematoxylin (MA010081, BBC Biochemical, Mount Vernon, WA, USA) and Eosin Y Alcoholic (#3610, BBC Biochemical) solution. The crown-like structure formation of gonadal white adipose tissue (gWAT) and triglyceride (TG) accumulation in the liver are observed using hematoxylin and eosin staining on paraffin slides. The images were captured using Nikon Elements (NIS BR Analysis ver 5.10.00). […]

HFD-fed mice = assay: Immunoblot of lipolytic, thermogenic and mitochondrial proteins in BAT and iWAT; serum FFA; type: in vivo, C57BL/6 J male mice; conditions: for P-HSL, P-CREB, UCP1 and COXIV levels in BAT: western blot
Experimental: To evaluate the anti-obesity effect in vivo, mice fed either NCD or HFD for 10 weeks were subsequently treated for up to 4 weeks. To control for injection route-related variables, all mice received both intraperitoneal (I.P.) and subcutaneous (S.C.) injections. The administration were as follows: LJ-4378 treated mice received LJ-4378, which was synthesized in our laboratory at > 95% purity (1 mg/kg/day, I.P.) (Hou et al. [2010]; Kim et al. [2022]) along with the vehicle for TZP (40 mM Tris–HCl, pH 8, S.C.); TZP treated mice received TZP (Samms et al. [2021]; Kim et al. [2022]) (LY3298176, MedChemExpress, Monmouth Junction, NJ, USA) (10 nmol/kg/day, S.C.) along with the vehicle for LJ-4378 (0.2% DMSO, I.P.); vehicle control mice received both vehicles (0.2% DMSO, I.P. and 40 mM Tris–HCl, pH 8, S.C.)
Serum free fatty acid (FFA) levels were quantification using HR Series NEFA-HR (2) (Color Reagent A (#999–34691), Solvent A (#995–34791), Color Reagent B (#991–34891), Solvent B (#993–35191), and NEFA Standard Solution (#276–76491) (FUJIFILM Wako Pure Chemicals, Osaka, Japan), following the manufacturer’s instruction.
For protein extraction, we utilized PRO-RERP Protein Extraction Solution (17081, iNtRON Biotechnology, Gyeonggi-do, Korea), supplemented with […] […] Protein concentrations were determined using the Pierce BCA protein assay Kit (#23227, Thermo Fisher, Waltham, Massachusetts, USA) by measuring absorbance at 562 nm with a MultiSkan GO spectrophotometer (Thermo Fisher). The quantified proteins were loaded and separated in 12% SDS-PAGE gels and transferred to polyvinylidene difluoride (PVDF) membranes (Bio-Rad, Hercules, CA, USA). […] After secondary antibody incubation, membranes were washed 3 times with TBST and detected with the Fusion Solo chemiluminescence imaging system (Vilber Lourmat, France). EvolutionCapt (version 17.03) software and the ImageJ (National Institutes of Health, Bethesda, MD, USA) program were used for analysis and to quantify the protein level.

Molecule | macrophage marker F4/80 and CLS formation in gWAT (WR mice) | fasting glucose levels, versus TZP-treated group (WR mice; 4 weeks post-treatment, WR) | glucose clearance in glucose tolerance test, versus TZP-treated group (WR mice; 4 weeks post-treatment, WR) | hepatic triglyceride (TG) deposition, versus TZP (WR mice; 4 weeks post-treatment, WR) | Tnf-α and Arg1 mRNA levels in gWAT (WR mice; after 4 weeks of WR) | UCP1 expression in BAT, LJ-4378 versus TZP (HFD-fed mice) | P-HSL, P-CREB, UCP1 and COXIV levels in BAT (HFD-fed mice)
CCCCC#Cc1nc(N)c2ncn([C@@H]3SC[C@@H](O)[C@H]3O)c2n1 [LJ-4378] | maintained lower levels of macrophage accumulation | lower | enhanced glucose clearance | significantly lower | reduced Tnf-α and increased Arg1 mRNA levels were maintained | more strongly induced | elevated levels
Tirzepatide [TZP, reference compound] | re-elevated |  |  |  |  |  | elevated levels
